From ChEMBL document CHEMBL3638751, “5-alkynyl-pyridines” (2013)

Target: Phosphatidylinositol 4,5-bisphosphate 3-kinase catalytic subunit alpha isoform (Homo sapiens, UniProt P42336)
Experiment: Filter-Binding-Assay: This PI3Kalpha assay provides an IC50 value indicative of the activity of the compounds to inhibit PI3 kinase alpha activity. Inhibition of PI3 kinase would be expected to be indicative of activity in treating conditions of excessive or anomalous cell proliferation, such as cancers. See also J. A. Engelman, Nature Reviews Cancer, 2009, 9, 550-562; A. Carnero, Expert Opin. Investig. Drugs, 2009, 18, 1265-1277 and P. Liu et al., Nature Reviews Drug Discovery, 2009, 8, 627-64.

Chain of Phosphatidylinositol 4,5-bisphosphate 3-kinase catalytic subunit alpha isoform (P42336 whole entry, canonical isoform): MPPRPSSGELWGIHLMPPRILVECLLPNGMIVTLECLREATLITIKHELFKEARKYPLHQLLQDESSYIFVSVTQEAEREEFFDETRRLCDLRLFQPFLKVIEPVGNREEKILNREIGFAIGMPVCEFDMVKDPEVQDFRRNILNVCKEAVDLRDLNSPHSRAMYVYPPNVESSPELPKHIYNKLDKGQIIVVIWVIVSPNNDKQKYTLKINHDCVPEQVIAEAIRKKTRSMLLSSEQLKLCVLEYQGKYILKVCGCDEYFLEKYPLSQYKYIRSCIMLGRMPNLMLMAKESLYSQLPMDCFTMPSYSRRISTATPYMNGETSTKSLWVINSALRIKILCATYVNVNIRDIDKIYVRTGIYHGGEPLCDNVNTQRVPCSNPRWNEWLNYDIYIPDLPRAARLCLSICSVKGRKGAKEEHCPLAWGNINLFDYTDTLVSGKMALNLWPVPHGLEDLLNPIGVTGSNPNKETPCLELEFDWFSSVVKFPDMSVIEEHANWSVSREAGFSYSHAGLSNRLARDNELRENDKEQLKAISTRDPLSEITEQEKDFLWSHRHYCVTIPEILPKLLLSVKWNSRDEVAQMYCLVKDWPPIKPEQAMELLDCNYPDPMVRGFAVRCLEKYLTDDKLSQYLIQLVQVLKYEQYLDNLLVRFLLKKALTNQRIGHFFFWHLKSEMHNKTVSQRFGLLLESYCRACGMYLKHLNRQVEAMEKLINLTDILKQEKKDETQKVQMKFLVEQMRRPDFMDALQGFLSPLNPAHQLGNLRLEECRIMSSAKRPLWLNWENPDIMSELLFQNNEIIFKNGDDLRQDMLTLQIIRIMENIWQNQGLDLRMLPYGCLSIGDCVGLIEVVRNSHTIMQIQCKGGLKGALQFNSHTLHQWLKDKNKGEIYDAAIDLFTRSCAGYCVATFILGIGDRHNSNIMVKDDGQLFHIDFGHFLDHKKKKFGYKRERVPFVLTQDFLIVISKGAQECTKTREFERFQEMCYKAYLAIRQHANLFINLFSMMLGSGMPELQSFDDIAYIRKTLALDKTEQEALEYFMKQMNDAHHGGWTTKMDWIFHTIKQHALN

In the case of `CCc1ncnc(N2CCC(O)CC2)c1C#Cc1cnc(C)c(NS(C)(=O)=O)c1`, the IC50 is reported as 0.86 nM.

Compound `Cc1ncc(C#Cc2c(C)ncnc2N2CCOCC2)cc1NS(=O)(=O)c1cnn(C)c1` has an IC50 of 0.56 nM.
